Series [1] concerns the target T1, Melanin-concentrating hormone receptor 1 (Homo sapiens, UniProt Q99705). The series can be described thus: Concentration required to inhibit 50% of melanin-concentrating hormone induced [Ca2+] flux in IMR-32 cells measured by using a fluorometric imaging plate reader. The class given is functional, cell-based.
Series [2] can be described thus: Area under curve in plasma was determined at the peroral dose of 10 mg/kg in diet-induced obese (DIO) mice; unit may be ng.h/mL or ng.h/g. The class given is ADME, organism-based. The settings on record: mouse, in vivo, po. Also on record: dose 10 mg/kg, route oral.
Series [3] in a line: Maximum concentration in plasma was determined at the peroral dose of 10 mg/kg in diet-induced obese (DIO) mice; unit may be ng/mL or ng/g. The settings on record: mouse, po. Type of series: ADME, organism-based. Also on record: dose 10 mg/kg, route oral.
Series [4] in a line: Maximum concentration in brain was determined at the peroral dose of 10 mg/kg in diet-induced obese (DIO) mice; unit may be ng/mL or ng/g. The class given is ADME, organism-based. The arrangement: dose 10 mg/kg, route oral. To be noted: mouse, po.
Series [5] in a line: Half life in plasma was determined at the peroral dose of 10 mg/kg in diet-induced obese (DIO) mice. Type of series: ADME, organism-based. The arrangement: dose 10 mg/kg, route oral. The settings on record: mouse, po.
Series [6] addresses T1, Melanin-concentrating hormone receptor 1. Description: Concentration required to inhibit binding of [125I]MCH radioligand to human Melanin-concentrating hormone receptor 1 in IMR-32 I3.4.2 cell membranes.
The nature of series [7]: Half life in brain was determined at the peroral dose of 10 mg/kg in diet-induced obese (DIO) mice. Type of series: ADME, organism-based. The arrangement: dose 10 mg/kg, route oral. To be noted: mouse, po.
The nature of series [8]: Area under curve in brain was determined at the peroral dose of 10 mg/kg in diet-induced obese (DIO) mice; unit may be ng.h/mL or ng.h/g. The class given is ADME, organism-based. Also on record: dose 10 mg/kg, route oral. The settings on record: mouse, in vivo, po.
Series [9] in a line: Area under curve in brain was determined in diet-induced obese (DIO) mice. The class given is ADME, tissue-based. The settings on record: mouse, in vivo.
Series [10] in a line: Brain/plasma ratio was determined in diet-induced obese (DIO) mice. The class given is ADME, cell-free. To be noted: mouse, brain and plasma.

Each structure is given as a SMILES string.

What is called IC50 is the concentration that inhibits the measured activity by half. In general, AUC refers to concentration integrated over time. One may read the Cmax as the maximum level reached in the sampled fluid or tissue. Broadly, the half-life is how long it takes for the measured level to halve. A higher half-life goes with slow loss. As a reminder, the Kp is the ratio of the level in a tissue or fluid to that in plasma or blood.

T1 sequence (Q99705 whole entry): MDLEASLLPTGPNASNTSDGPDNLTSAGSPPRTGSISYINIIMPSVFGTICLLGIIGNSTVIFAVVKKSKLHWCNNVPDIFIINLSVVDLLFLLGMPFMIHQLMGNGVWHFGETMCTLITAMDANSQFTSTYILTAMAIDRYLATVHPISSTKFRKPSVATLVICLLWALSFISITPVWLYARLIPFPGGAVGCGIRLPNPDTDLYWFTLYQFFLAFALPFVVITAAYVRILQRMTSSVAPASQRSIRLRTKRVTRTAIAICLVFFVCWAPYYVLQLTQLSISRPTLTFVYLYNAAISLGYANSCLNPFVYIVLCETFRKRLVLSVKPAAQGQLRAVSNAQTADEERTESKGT

On to `Nc1ccc2cccc(OC3CCN(c4ccc5c(c4)OC(F)(F)O5)C3)c2n1` (stereo not drawn), for which the IC50 was 22.4 nM in series [1] and 0.9 nM in [6]. In addition, the AUC was found to be 801 ng·h/mL in series [2] and 17700 ng·h/mL in series [8]. The Cmax in [3] worked out at 331 ng/mL; in [4], 2860 ng/mL. Besides, the results for the half-life in series [5] and in series [7] were 4.6 h and 5.1 h, respectively.
Molecule `Nc1ccc2cccc(OCCCNC(=O)c3cccc(Cl)c3)c2n1` had an IC50 in [1] of 7 nM. The same molecule registered an AUC in [9] of 11 ng·h/mL. For the same molecule, the Kp in series [10] was 0.03.
With `CC(=O)Nc1ccc(CN2CC[C@H](Oc3cccc4ccc(N)nc34)C2)cc1`, the 50% inhibitory concentration (IC50) in series [1] was determined as 1260 nM; in [6], 90 nM.
For `CC(C)Cc1ccc(N2CCC(Oc3cccc4ccc(NCC5CC5)nc34)C2)cc1` (stereo not drawn) the same measures were more than 10000 nM and 149 nM.
As to `Nc1ccc2cccc(O[C@H]3CCN(C(=O)c4ccc5c(c4)OCO5)C3)c2n1`, the IC50 in series [1] amounted to 9140 nM; in [6] it was 730 nM.
In the same order, the values of `CC(C)(C)c1ccc(S(=O)(=O)N2CC[C@H](Oc3cccc4ccc(N)nc34)C2)cc1` are 1140 nM and 210 nM.
For `CCC(c1ccccc1)N1CCC(Oc2cccc3ccc(N)nc23)C1` (stereo not drawn), the values for the IC50 in series [1] and in [6] were 224 nM and 20.5 nM, respectively.
On to `CN(C)c1ccc2cccc(OC3CCN(c4ccc5c(c4)OCO5)C3)c2n1` (stereo not drawn), for which the half-maximal inhibitory concentration (IC50) in series [1] was more than 10000 nM; in series [6], more than 2000 nM.
For `CC(C)Cc1ccc(N2CCC(Oc3cccc4ccc(NCc5ccc(-c6cccc(C(F)(F)F)c6)o5)nc34)C2)cc1` (stereo not drawn) the same measures were 41 nM and 41 nM.
`Nc1ccc2cccc(O[C@@H]3CCN(Cc4ccc5c(c4)OCO5)C3)c2n1`: the IC50 in series [1] was 1600 nM; in series [6], 70 nM.
`CC(C)Cc1ccc(N2CCC(Oc3cccc4ccc(N)nc34)C2)cc1` (stereo not drawn): the IC50 in series [1] was found to be 53.3 nM; in [6], 1.2 nM.
For `Nc1ccc2cccc(O[C@H]3CCN(Cc4ccc5c(c4)OCO5)C3)c2n1`, the IC50 in [1] amounted to 30 nM; in [6], 70 nM. Besides, the AUC in series [2] came out at 1350 ng·h/mL; in [8], 1710 ng·h/mL. The Cmax in series [3] is 543 ng/mL; in series [4], 183 ng/mL. The half-life in [5] was 6.5 h; in series [7], 8.3 h.
As for `Nc1ccc2cccc(O[C@H]3CCN(Cc4ccccc4)C3)c2n1`, the IC50 was 1690 nM in [1] and 120 nM in series [6].
As for `CC(C)(C)c1ccc(CN2CC[C@H](Oc3cccc4ccc(N)nc34)C2)cc1`, the IC50 in series [1] stood at 30 nM; in [6] it was 1 nM.
In the same order, the values of `Nc1ccc2cccc(OC3CCN(c4ccc5c(c4)OCCO5)C3)c2n1` (stereo not drawn) are 51 nM and 2.7 nM.
In series [9], `Nc1ccc2cccc(OCCCNCc3ccc(Cl)c(C(F)(F)F)c3)c2n1` gave an AUC of 9520 ng·h/mL. The Kp in series [10] stood at 0.96.
For `CC(Cc1ccc2c(c1)OCO2)N1CCC(Oc2cccc3ccc(N)nc23)C1` (stereo not drawn), the IC50 in [1] was 79.2 nM; in series [6], 2.2 nM.
In the same order, the values of `Nc1ccc2cccc(O[C@@H]3CCN(c4ccc5c(c4)OC(F)(F)O5)C3)c2n1` are 531 nM and 38.6 nM.
`CNc1ccc2cccc(OC3CCN(c4ccc5c(c4)OCCO5)C3)c2n1` (stereo not drawn): the IC50 in series [1] was 244 nM; in series [6], 25.6 nM.
As to `Nc1ccc2cccc(O[C@@H]3CCN(Cc4ccccc4)C3)c2n1`, the IC50 in [1] is more than 10000 nM; in series [6], 580 nM.

The values are drawn from ChEMBL document CHEMBL1137036, “Synthesis and evaluation of 2-amino-8-alkoxy quinolines as MCHr1 antagonists. Part 3” (Bioorg Med Chem Lett, 2004).
